Experiment: Human HepG2 cell viability assay in 384 well format
Type: toxicity, cell-based
Parameters: dose 125 nL, time 70.5 hour; concentration not given beside the values
Details: HepG2 cells, read-out: Inhibition

Structure (SMILES)	cytotoxicity at 70.5 h [%]
CN(Cc1ccc2c(c1)OCO2)C(=O)c1ccc(=O)n(C)c1	-1.05
CS(=O)(=O)NCC1CCCN(c2ccc(C(F)(F)F)cn2)C1 (stereo not drawn)	-7.49
CN(Cc1ccc(Br)o1)C(=O)Nc1cccnc1	-5.06
N#Cc1ccccc1N1CCCN(CC(=O)Nc2ccccc2Cl)CC1	-6.48
Cn1ccnc1COc1ccc(NC(=O)CCC2CCCO2)cc1 (stereo not drawn)	-5.92
COc1c(CNCc2cccc(CN3CCOCC3)c2)c(C)nn1C	-10.7
O=C(CN1CSCC1=O)NCC1CCN(c2ccccc2)C1 (stereo not drawn)	-8.38
COc1cc(NC(=O)NC2CC2)ccc1N1CCOC1=O	-8.49
O=C(NCCNC(=O)C1Cc2cc(F)ccc2O1)C1CCCCC1 (stereo not drawn)	-9.82
COc1c(C(=O)NCC(C)Sc2ccccc2)c(C)nn1C (stereo not drawn)	-5.69
Cc1csc(C2CCCCN2C(=O)Cn2cncn2)n1 (stereo not drawn)	20.9
N#Cc1nccnc1N1CCC(c2nc(C(F)(F)F)c[nH]2)CC1	-9.24
N#Cc1cccnc1N1CCC(c2nc(C(F)(F)F)c[nH]2)CC1	-15.7
N#Cc1ccc(N2CCC(c3nc(C(F)(F)F)c[nH]3)CC2)nc1	-11.5
FC(F)(F)c1c[nH]c(C2CCN(c3ncccn3)CC2)n1	-15.4
Cn1cc(Br)cc(NC(=O)CC(C)(C)C)c1=O	-13.2
CCC(=O)Nc1cc(Br)cn(C)c1=O	23.5
CC(C)(C)OC(=O)N1CCC[C@H](NCc2cc[nH]c2)C1	-11
CCc1nc(C(=O)N2CCN(CCc3ccc(OC)cc3)CC2)c[nH]1	-12.3
Brc1csc(CNCc2nnc3n2CCC3)c1	-12.4
CC(C)SCc1cccc(NC2CCN(C)C2=O)c1 (stereo not drawn)	-15.1
O=C(Nc1cn[nH]c1)N(CCO)C1CCc2ccccc21 (stereo not drawn)	-13.9
CC(C)(C)OC(=O)N1CCC[C@H](NCC2=CCCOC2)C1	-9.87
CCc1nnc2n1CC(CNCc1nc(C)c(C)o1)CC2 (stereo not drawn)	-2.88

Structure (SMILES)	cytotoxicity at 70.5 h [%]
Cc1ccc(O)c(CNCC(C)c2nc3ccccc3o2)n1 (stereo not drawn)	-4.08
Cc1ccc(S(=O)(=O)N(CC(N)=O)CC(C)C)cc1C	-5.56
Brc1ccc(-c2nnc(CN(Cc3cccs3)CC3CCCO3)o2)s1 (stereo not drawn)	-14.5
CN(Cc1ccc(N(C)C)cc1)C(=O)CSc1ccc(Br)cc1	-9.49
Cc1nnc(NCCC(=O)NCc2ccccc2)c(C#N)c1C	-9.42
Cc1nnc(NCCC(=O)N(C)Cc2ccccc2)c(C#N)c1C	3.39
CCOc1ncccc1NC(=O)Nc1c(C)nn(C(C)C)c1C	-4.11
Cc1cc(C)c(CNC(=O)NCC2Cc3ccccc3O2)c(=O)[nH]1 (stereo not drawn)	-6.51
O=C(c1cc(F)cc2[nH]cnc12)N1CCCC1Cn1cccn1 (stereo not drawn)	-8.91
Cc1nnc(C(NS(=O)(=O)c2cc(C#N)ccc2C)C(C)C)[nH]1 (stereo not drawn)	-5.93
CCn1nc2c(cc1=O)CN(c1ncnc3ccsc13)CC2	-7.93
CC(C)n1nc2c(cc1=O)CN(c1ncnc3ccsc13)CC2	13.9
CC(C)n1nc2c(cc1=O)CN(c1ncnc3ccccc13)CC2	-1.82
Cc1nnc(C(NS(=O)(=O)c2cc(F)c(C)cc2F)C(C)C)[nH]1 (stereo not drawn)	-5.12
Cn1cnnc1-c1ccnc(NCc2ccc3c(c2)OCCO3)c1	-3.05
OC1CCN(c2ccnc3c(F)cc(Br)cc23)CC1	16.9
Cc1cc(S(=O)(=O)NC(=O)CCc2cncc(F)c2)c(C)s1	-1.54
Cc1cn2c(n1)C(CNCC1=Cc3ccccc3OC1)CCC2 (stereo not drawn)	10.6
CN(Cc1ccccc1)C(=O)CCNc1ncccc1C#N	-4.83
FC(F)COc1ccccc1NCc1nnsc1Cl	-10.5
O=C(c1c[nH]c2ncccc12)N1CCC(COc2ccccc2)CC1	10.4
CN(C)C(CNC(=O)c1nc(N2CCCC2)ncc1Cl)c1ccco1 (stereo not drawn)	-17.5
COc1cc2c(cc1OC)S(=O)(=O)N(Cc1ccc(C)cc1)C2=O	-14.5
Cc1ccc(C(=O)O)cc1S(=O)(=O)N(CC(C)O)c1ccccc1 (stereo not drawn)	-16.2

Structure (SMILES)	cytotoxicity at 70.5 h [%]
CCN(c1ccccc1)S(=O)(=O)c1cc(C(=O)O)cc2c1CCC2	21.2
CC1CCN(CC2CCN(C(=O)c3c[nH]c4ncccc34)CC2)CC1	-19.4
CCN(c1cccc(F)c1)S(=O)(=O)c1cc(C(=O)O)cc2c1CCC2	-9.22
COc1cc(C(C)=O)ccc1SCC(=O)Nc1cccc(C)n1	-19.2
CCN(C)c1ccc(CNC(=O)c2ccc(NC(N)=O)cc2)cc1F	-17.6
CCc1nc(CNC2CCCCNC2=O)cs1 (stereo not drawn)	-6.64
CCN(C(=O)NCCc1ccc(C)cc1C)C(C)CS(C)(=O)=O (stereo not drawn)	-12.9
CCN(C(=O)NCCc1cccc(F)c1F)C(C)CS(C)(=O)=O (stereo not drawn)	-5.85
CCN(C(=O)NCCc1ccccc1Cl)C(C)CS(C)(=O)=O (stereo not drawn)	20.5
NC(=O)c1ccc(OCC(=O)NC2CCc3c(F)cccc32)cc1 (stereo not drawn)	-5.14
O=C(O)c1cc2c(c(S(=O)(=O)N(CCCO)c3ccccc3)c1)CCC2	-10.1
COC(C)(C)CNC(=O)N(C)Cc1nc(-c2ccccc2)c[nH]1	24.9
CN(Cc1nc(-c2ccccc2)c[nH]1)C(=O)NCC(=O)NC(C)(C)C	-5.84
O=C(NCCCc1cccs1)N1CCCCC1CCO (stereo not drawn)	-1.44
CCOCC1CCN(C(=O)Nc2ccc3c(c2)CCCN3C)C1 (stereo not drawn)	-10.4
OCC(O)CSCc1nnc(-c2ccc(Cl)cc2)o1 (stereo not drawn)	-13.7
COc1cc(F)ccc1N1CCN(Cc2nnc(C3CC3)o2)CC1	-14.9
CC(C)CNC(=O)Cn1cc(C(N)=O)c(-c2ccccc2)n1	-8.01
CCC(CC)NC(=O)Cn1cc(C(N)=O)c(-c2ccccc2)n1	17.3
CC(Cc1ccco1)NC(=O)CCn1cccn1 (stereo not drawn)	-14.7
CCCN(C(=O)c1csnn1)C1CCCN(Cc2ccccc2)C1 (stereo not drawn)	-5.57
CC(C(=O)Nc1cccc(Cl)c1)N1CCN(Cc2ncc[nH]2)CC1 (stereo not drawn)	-10.6
O=C(CCc1nc(C2CC2)no1)c1ccccc1	-16
CC(C)c1noc(CCNC(=O)N2CCC(O)(C(F)(F)F)C2)n1 (stereo not drawn)	-14.8

Structure (SMILES)	cytotoxicity at 70.5 h [%]
Cc1ccccc1CNc1ccccc1OCC(=O)N1CCOCC1	-3.34
O=C(CCn1ccc2ccccc21)Nc1ccnn1CC1CCOC1 (stereo not drawn)	-16.3
Cc1cc(C(N)=O)c2c(Br)cccc2n1	-13.6
O=C1NC(c2cnc(C3CCC3)s2)Nc2ncccc21 (stereo not drawn)	-26.5
Cc1ccc(NCc2cc(C#N)ccc2F)cc1-n1nnnc1C	-13.2
CN(CCC(N)=O)Cc1cc(Br)cs1	-19.7
COC(=O)CN(C)Cc1cc(Br)cs1	38.2
OC(COCc1ccccc1)CN1CCC(Cn2cccn2)CC1 (stereo not drawn)	-22.4
CCCn1nnnc1COc1ccc(C(=O)OC)cc1	-11.5
CCN(C(=O)COC)C(c1ccc(Cl)cc1)c1ccccn1 (stereo not drawn)	-21.9
Clc1ccc(CNc2cnn(CCN3CCOCC3)c2)cc1Cl	-19.4
CS(=O)(=O)c1cccc(OCC(=O)N2CCCC2c2ccccc2Cl)c1 (stereo not drawn)	-2.69
CCCN(Cc1cnn(C)c1)CC1CCCN(S(C)(=O)=O)C1 (stereo not drawn)	23.4
CC(C)N(Cc1cnn(C)c1)CC1CCCN(S(C)(=O)=O)C1 (stereo not drawn)	10.1
Cc1ccc(N2CCCC(N3CCC(N(C)C)CC3)C2=O)cc1 (stereo not drawn)	13.2
Cc1ccc(NC(=O)CNc2ccn(CC(N)=O)n2)c(Cl)c1	-7.52
CC(C(=O)NCC1(c2cccc(Br)c2)CCC1)S(C)(=O)=O (stereo not drawn)	7
CC(=O)N1CCN(C(=O)CNc2ccc3sccc3c2)CC1	-4.15
CC(=O)N1CCN(C(=O)CNc2ccc3ncsc3c2)CC1	-5.1
O=C(NCCOCC1CC1)Nc1ccc(F)cc1	-9.49
CC(=O)c1ccc(Cl)c(Cl)c1OCC(=O)NC(N)=O	14.2
CC(=O)c1ccc(Cl)c(Cl)c1OCC(=O)NCC(F)(F)F	-8.87
Nc1cc2c(nn1)CCN(C(=O)c1cccnc1Oc1ccccc1)C2	-8.86
CC(C)OCc1cccc(NC(=O)N2CCCC(CCC(N)=O)C2)c1 (stereo not drawn)	6.13

Structure (SMILES)	cytotoxicity at 70.5 h [%]
CN(C)C1(CNC(=O)Cc2ccc(F)cc2)CCOCC1	-5.15
Nc1cc2c(nn1)CCN(C(=O)c1ccc(Oc3cccnc3)cc1)C2	-9.26
CN(C)C1(CNC(=O)C2CCCN2Cc2ccc(F)cc2)CCOCC1 (stereo not drawn)	6.73
COC(=O)C1CCN(C(=O)Nc2cc(-n3cccc3)ccc2F)CC1	-6.77
CC(C)NC(=O)CS(=O)(=O)c1cc2c(cc1Cl)OCCO2	-3.28
Cn1cc(CNc2cnn(CCO)c2)c(-c2ccncc2)n1	-5.07
Cc1ccc(N2CCCC(N3CCC4(CC3)OCCO4)C2=O)cc1 (stereo not drawn)	-7.88
O=C(Nc1cc(-n2cccc2)ccc1F)N1CCCC1	-11.7
NC(=O)N1CCCN(C(=O)Nc2cc(-n3cccc3)ccc2F)CC1	-6.12
CN(CC1CCCN(S(C)(=O)=O)C1)c1cnn(C)c1 (stereo not drawn)	18.9
COc1cncc(N2CCN(Cc3cccn3C)CC2)n1	3.9
CCOc1cccnc1C(=O)N1CCC(c2ccccc2OC)C1 (stereo not drawn)	-8.54
COc1ccccc1C1CCN(C(=O)c2ncccc2OC(C)C)C1 (stereo not drawn)	-1.72
COc1cc(CNC2CCN(c3ccccc3)C2)cc(OC)c1OC (stereo not drawn)	-6.84
COCCn1cc(NCc2cn(C)nc2-c2ccncc2)cn1	21.2
CCN(Cc1cnn(C)c1)C(=O)c1ccccc1O	-6.92
N#Cc1cnn(CCN2CCOC(CNc3cccnn3)C2)c1 (stereo not drawn)	4.89
c1cnnc(NCC2CN(CCn3cncn3)CCO2)c1 (stereo not drawn)	11.7
Cc1nn(C)c(N(C)C)c1CNCc1nnc2n1CCCCC2	-6.41
Brc1ccc(CNCc2nnc3n2CCC3)s1	14.8
Cc1cccc(CC(=O)N2CCCCC2CN)c1 (stereo not drawn)	-3.78
NCC1CCCCN1C(=O)Cc1ccc(F)c(F)c1 (stereo not drawn)	-9.5

— ChEMBL document CHEMBL3507680, “University of Dundee, Gates Library screen for HepG2 cell viability”
